Experimental data reported in patent US8129037B2, “Phenanthrene derivative” (priority 2005, dated 2012).

Test: Solubility comparison in common organic solvents
Type: physicochemical
Settings: qualitative
Text: In contrast, phenanthrenes which are structurally analogous but unsubstituted in the 9- and 10-position have distinctly poorer solubility in organic solvents. This leads to considerable problems in the purification, since substantially larger apparatus and distinctly larger amounts of solvent are required for this purpose.

Question: Which “Solubility in common organic solvents” value does the source give for `Cc1ccc(-c2ccc3c(c2)c(C)c(C)c2cc(-c4ccc(C)c5ccccc45)ccc23)c2ccccc12` [Example P1] here?
Answer: The value was “moderate to good”.
